The subject of this test is Nucleic Acid.
As usually defined, the EC50 is the concentration giving half of the maximal effect. Read a high EC50 as a less potent agent. With `CC[C@H](C)[C@@H]1NC(=O)[C@@H](Cc2ccc(OC)cc2)NC(=O)[C@H](CCCCCC(=O)C(F)(F)F)NC(=O)[C@H]2CCCN2C1=O`, the EC50 stood at 3.09 µM.

On to `CC[C@H](C)[C@@H]1NC(=O)[C@@H](Cc2ccc(OC)cc2)NC(=O)[C@H](CCCCCC(=O)C(F)(F)C(F)(F)F)NC(=O)[C@H]2CCCN2C1=O`, for which the response was half-maximal at 31.1 µM (EC50). The value for `CC(/C=C/C(=O)NO)=C\[C@@H](C)C(=O)c1ccc(N(C)C)cc1` [TRICHOSTATIN] was 0.77 µM.
